# Experimental data as given in ChEMBL document CHEMBL1201861, “Genomics of Drug Sensitity in Cancer screening data, Wellcome Trust Sanger Institute”.
# pIC50: −log10 of the molar value.
# Key:
# Assay in all cases: cells
# KYSE-70 cell line = type: functional, cell-based, Homo sapiens; details: Homo sapiens, KYSE-70;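 further: cell viability assay read-out, with IC50 expressing suppression of KYSE-70 cell growth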
# Description: SANGER: Inhibition of human KYSE-70 cell growth in a cell viability assay.
# EFO-21 = type: functional, cell-based, Homo sapiens; details: Homo sapiens, EFO-21;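 further: growth inhibition of EFO-21 cells measured with a viability assay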
# Description: SANGER: Inhibition of human EFO-21 cell growth in a cell viability assay.
# MC116 = type: functional, cell-based; details: Homo sapiens;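 further: growth inhibition of MC116 cells, read out with a cell viability assay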
# Description: SANGER: Inhibition of human MC116 cell growth in a cell viability assay.
# OAW-42 = type: functional, cell-based, Homo sapiens; details: Homo sapiens, OAW-42;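 further: growth inhibition of OAW-42 cells, read out with a cell viability assay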
# Description: SANGER: Inhibition of human OAW-42 cell growth in a cell viability assay.
# LB771-HNC = type: functional, cell-based, Homo sapiens; details: Homo sapiens, LB771-HNC;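 further: growth inhibition of LB771-HNC human cells, read out with a cell viability assay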
# Description: SANGER: Inhibition of human LB771-HNC cell growth in a cell viability assay.
# KYSE-510 = type: functional, cell-based, Homo sapiens; details: Homo sapiens, KYSE-510;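 further: cell viability readout used to measure how strongly growth of the cell line is suppressed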
# Description: SANGER: Inhibition of human KYSE-510 cell growth in a cell viability assay.
# OVCAR-3 = type: functional, cell-based, Homo sapiens; details: Homo sapiens, OVCAR-3;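 further: growth inhibition of human OVCAR-3 cells, determined by a cell viability assay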
# Description: SANGER: Inhibition of human OVCAR-3 cell growth in a cell viability assay.
# KGN = type: functional, cell-based, Homo sapiens; details: Homo sapiens, KGN;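 further: growth inhibition of KGN cells, read out with a cell viability assay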
# Description: SANGER: Inhibition of human KGN cell growth in a cell viability assay.
# RXF 393 = type: functional, cell-based; details: Homo sapiens;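 further: growth inhibition of human RXF 393 cells, read out with a cell viability assay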
# Description: SANGER: Inhibition of human RXF393 cell growth in a cell viability assay.
# ETK-1 = type: functional, cell-based, Homo sapiens; details: Homo sapiens, ETK-1;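 further: growth inhibition of human ETK-1 cells, read out with a cell viability assay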
# Description: SANGER: Inhibition of human ETK-1 cell growth in a cell viability assay.
# EFO-27 = type: functional, cell-based, Homo sapiens; details: Homo sapiens, EFO-27;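 further: growth inhibition of EFO-27 cells, read out with a cell viability assay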
# Description: SANGER: Inhibition of human EFO-27 cell growth in a cell viability assay.
# MKN-1 = type: functional, cell-based, Homo sapiens; details: Homo sapiens, MKN-1;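 further: growth inhibition of human MKN1 cells, read out by a cell viability measurement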
# Description: SANGER: Inhibition of human MKN1 cell growth in a cell viability assay.
# CHP-212 = type: functional, cell-based, Homo sapiens; details: Homo sapiens, CHP-212
# Description: SANGER: Inhibition of human CHP-212 cell growth in a cell viability assay.
# ACN = type: functional, cell-based, Homo sapiens; details: Homo sapiens, ACN;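 further: growth inhibition of the human ACN cell line, read out via cell viability testing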
# Description: SANGER: Inhibition of human ACN cell growth in a cell viability assay.
# Ramos-2G6-4C10 = type: functional, cell-based; details: Homo sapiens;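 further: growth inhibition of the cell line, measured by a cell viability read-out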
# Description: SANGER: Inhibition of human Ramos-2G6-4C10 cell growth in a cell viability assay.
# TGBC1TKB = type: functional, cell-based, Homo sapiens; details: Homo sapiens, TGBC1TKB;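 further: growth inhibition of TGBC1TKB cells, read out by a cell viability assay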
# Description: SANGER: Inhibition of human TGBC1TKB cell growth in a cell viability assay.
# YKG-1 = type: functional, cell-based, Homo sapiens; details: Homo sapiens, YKG-1;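 further: cell growth inhibition, read out with a viability assay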
# Description: SANGER: Inhibition of human YKG-1 cell growth in a cell viability assay.
# MDA-MB-157 = type: functional, cell-based, Homo sapiens; details: Homo sapiens, MDA-MB-157
# Description: SANGER: Inhibition of human MDA-MB-157 cell growth in a cell viability assay.
# Calu-6 = type: functional, cell-based, Homo sapiens; details: Homo sapiens, Calu-6;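 further: growth of human Calu-6 cells, read out by a cell viability assay, IC50 marking inhibition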
# Description: SANGER: Inhibition of human Calu-6 cell growth in a cell viability assay.
# DB = type: functional, cell-based; details: Homo sapiens
# Description: SANGER: Inhibition of human DB cell growth in a cell viability assay.
# AN3-CA = type: functional, cell-based; details: Homo sapiens;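 further: growth inhibition of human AN3-CA cells measured by a cell viability assay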
# Description: SANGER: Inhibition of human AN3-CA cell growth in a cell viability assay.
# HCC1187 = type: functional, cell-based, Homo sapiens; details: Homo sapiens, HCC1187;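 further: growth inhibition of HCC1187 cells, read out with a cell viability assay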
# Description: SANGER: Inhibition of human HCC1187 cell growth in a cell viability assay.
# NCI-H1299 = type: functional, cell-based, Homo sapiens; details: Homo sapiens, NCI-H1299;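 further: growth inhibition of human NCI-H1299 cells, read out by a cell viability assay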
# Description: SANGER: Inhibition of human NCI-H1299 cell growth in a cell viability assay.
# no-10 = type: functional, cell-based, Homo sapiens; details: Homo sapiens;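 further: growth inhibition of no-10 cells, read out with a cell viability assay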
# Description: SANGER: Inhibition of human no-10 cell growth in a cell viability assay.
# LU-99A = type: functional, cell-based, Homo sapiens; details: Homo sapiens, LU-99A;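 further: growth inhibition of LU-99A cells, read out with a cell viability assay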
# Description: SANGER: Inhibition of human LU-99A cell growth in a cell viability assay.
# BFTC-909 = type: functional, cell-based, Homo sapiens; details: Homo sapiens, BFTC-909
# Description: SANGER: Inhibition of human BFTC-909 cell growth in a cell viability assay.
# NCI-H1437 = type: functional, cell-based, Homo sapiens; details: Homo sapiens, NCI-H1437;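 further: growth inhibition of human NCI-H1437 cells, read out by a cell viability assay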
# Description: SANGER: Inhibition of human NCI-H1437 cell growth in a cell viability assay.
# NCI-H226 = type: functional, cell-based, Homo sapiens; details: Homo sapiens, NCI-H226;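 further: cell viability read-out used to gauge growth inhibition of the cells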
# Description: SANGER: Inhibition of human NCI-H226 cell growth in a cell viability assay.
# NCI-H1838 = type: functional, cell-based, Homo sapiens; details: Homo sapiens, NCI-H1838;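 further: growth inhibition of NCI-H1838 cells, determined with a cell viability readout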
# Description: SANGER: Inhibition of human NCI-H1838 cell growth in a cell viability assay.
# BT-474 = type: functional, cell-based, Homo sapiens; details: Homo sapiens, BT-474
# Description: SANGER: Inhibition of human BT-474 cell growth in a cell viability assay.
# KNS-81-FD = type: functional, cell-based, Homo sapiens; details: Homo sapiens, KNS-81-FD;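 further: growth inhibition of KNS-81-FD cells, read out with a cell viability assay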
# Description: SANGER: Inhibition of human KNS-81-FD cell growth in a cell viability assay.
# SNU-387 = type: functional, cell-based, Homo sapiens; details: Homo sapiens, SNU-387
# Description: SANGER: Inhibition of human SNU-387 cell growth in a cell viability assay.
# D-336MG = type: functional, cell-based, Homo sapiens; details: Homo sapiens, D-336MG
# Description: SANGER: Inhibition of human D-336MG cell growth in a cell viability assay.
# EW-16 = type: functional, cell-based, Homo sapiens; details: Homo sapiens, EW-16;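 further: growth inhibition of human EW-16 cells, read out as cell viability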
# Description: SANGER: Inhibition of human EW-16 cell growth in a cell viability assay.
# MeWo = type: functional, cell-based, Homo sapiens; details: Homo sapiens, MeWo;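 further: growth inhibition of MeWo cells, determined by a cell viability readout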
# Description: SANGER: Inhibition of human Mewo cell growth in a cell viability assay.
# SNB-75 = type: functional, cell-based, Homo sapiens; details: Homo sapiens, SNB-75;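 further: cell viability assay measuring growth inhibition of human SNB-75 cells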
# Description: SANGER: Inhibition of human SNB75 cell growth in a cell viability assay.
# SHP77 = type: functional, cell-based, Homo sapiens, SHP-77; details: Homo sapiens, SHP77;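 further: growth inhibition of human SHP-77 cells measured by a cell viability assay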
# Description: SANGER: Inhibition of human SHP-77 cell growth in a cell viability assay.
# OCI-AML2 = type: functional, cell-based; details: Homo sapiens;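 further: growth inhibition of OCI-AML2 cells, read out with a cell viability assay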
# Description: SANGER: Inhibition of human OCI-AML2 cell growth in a cell viability assay.
# P30-OHK = type: functional, cell-based; details: Homo sapiens;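 further: growth inhibition of the P30-OHK cell line, read out with a cell viability assay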
# Description: SANGER: Inhibition of human P30-OHK cell growth in a cell viability assay.
# U2OS = type: functional, cell-based, Homo sapiens, U-2-OS; details: Homo sapiens, U2OS;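 further: growth inhibition of human U-2-OS cells, determined with a cell viability assay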
# Description: SANGER: Inhibition of human U-2-OS cell growth in a cell viability assay.
# NB14 = type: functional, cell-based; details: Homo sapiens;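 further: growth inhibition of NB14 cells measured with a cell viability assay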
# Description: SANGER: Inhibition of human NB14 cell growth in a cell viability assay.
# SW948 = type: functional, cell-based, Homo sapiens; details: Homo sapiens, SW948;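 further: growth inhibition of SW948 cells, read out with a cell viability assay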
# Description: SANGER: Inhibition of human SW948 cell growth in a cell viability assay.
# NCI-H1581 = type: functional, cell-based, Homo sapiens; details: Homo sapiens, NCI-H1581;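 further: cell growth inhibition read out by a viability assay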
# Description: SANGER: Inhibition of human NCI-H1581 cell growth in a cell viability assay.
# IGROV-1 = type: functional, cell-based, Homo sapiens; details: Homo sapiens, IGROV-1;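 further: reduction of IGROV-1 cell growth, read out with a viability assay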
# Description: SANGER: Inhibition of human IGROV-1 cell growth in a cell viability assay.
# SJSA-1 = type: functional, cell-based, Homo sapiens; details: Homo sapiens, SJSA-1;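 further: growth inhibition of human SJSA-1 cells, read out through a cell viability measurement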
# Description: SANGER: Inhibition of human SJSA-1 cell growth in a cell viability assay.
# SNU-5 = type: functional, cell-based; details: Homo sapiens;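 further: cell viability readout used to measure growth inhibition in human NCI-SNU-5 cells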
# Description: SANGER: Inhibition of human NCI-SNU-5 cell growth in a cell viability assay.
# HLE = type: functional, cell-based, Homo sapiens; details: Homo sapiens, HLE;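 further: growth inhibition of human HLE cells, read out by a cell viability assay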
# Description: SANGER: Inhibition of human HLE cell growth in a cell viability assay.
# NB12 = type: functional, cell-based, Homo sapiens; details: Homo sapiens, NB12;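 further: growth inhibition of human NB12 cells, read out by a cell viability assay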
# Description: SANGER: Inhibition of human NB12 cell growth in a cell viability assay.
# MEL-HO = type: functional, cell-based, Homo sapiens; details: Homo sapiens, MEL-HO
# Description: SANGER: Inhibition of human MEL-HO cell growth in a cell viability assay.
# C32 = type: functional, cell-based, Homo sapiens; details: Homo sapiens, C32;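 further: cell viability assay, with IC50 reflecting inhibition of C32 cell growth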
# Description: SANGER: Inhibition of human C32 cell growth in a cell viability assay.
# GB-1 = type: functional, cell-based, Homo sapiens; details: Homo sapiens, GB-1;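 further: growth of GB-1 cells judged by a viability assay, IC50 marks the concentration inhibiting growth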
# Description: SANGER: Inhibition of human GB-1 cell growth in a cell viability assay.
structure (smiles),measurement,setting,value
CCOc1nc(NC(=O)Cc2cc(OC)ccc2OC)cc(N)c1C#N,pIC50,KYSE-70 cell line,< 5.00
same,pIC50,EFO-21,< 5.00
same,pIC50,MC116,< 5.00
same,pIC50,OAW-42,< 5.00
same,pIC50,LB771-HNC,< 5.00
same,pIC50,KYSE-510,< 5.00
same,pIC50,OVCAR-3,< 5.00
same,pIC50,KGN,< 5.00
same,pIC50,RXF 393,< 5.00
same,pIC50,ETK-1,< 5.00
same,pIC50,EFO-27,< 5.00
same,pIC50,MKN-1,< 5.00
same,pIC50,CHP-212,< 5.00
same,pIC50,ACN,< 5.00
same,pIC50,Ramos-2G6-4C10,< 5.00
same,pIC50,TGBC1TKB,< 5.00
same,pIC50,YKG-1,< 5.00
same,pIC50,MDA-MB-157,< 5.00
same,pIC50,Calu-6,< 5.00
same,pIC50,DB,< 5.00
same,pIC50,AN3-CA,< 5.00
same,pIC50,HCC1187,< 5.00
same,pIC50,NCI-H1299,< 5.00
same,pIC50,no-10,< 5.00
same,pIC50,LU-99A,< 5.00
same,pIC50,BFTC-909,< 5.00
same,pIC50,NCI-H1437,< 5.00
same,pIC50,NCI-H226,< 5.00
same,pIC50,NCI-H1838,< 5.00
same,pIC50,BT-474,< 5.00
same,pIC50,KNS-81-FD,< 5.00
same,pIC50,SNU-387,< 5.00
same,pIC50,D-336MG,< 5.00
same,pIC50,EW-16,< 5.00
same,pIC50,MeWo,< 5.00
same,pIC50,SNB-75,< 5.00
same,pIC50,SHP77,< 5.00
same,pIC50,OCI-AML2,< 5.00
same,pIC50,P30-OHK,< 5.00
same,pIC50,U2OS,< 5.00
same,pIC50,NB14,< 5.00
same,pIC50,SW948,< 5.00
same,pIC50,NCI-H1581,< 5.00
same,pIC50,IGROV-1,< 5.00
same,pIC50,SJSA-1,< 5.00
same,pIC50,SNU-5,< 5.00
same,pIC50,HLE,< 5.00
same,pIC50,NB12,< 5.00
same,pIC50,MEL-HO,< 5.00
same,pIC50,C32,< 5.00
same,pIC50,GB-1,< 5.00
COc1ccc(C2=N[C@@H](c3ccc(Cl)cc3)[C@@H](c3ccc(Cl)cc3)N2C(=O)N2CCNC(=O)C2)c(OC(C)C)c1 [NUTLIN-3],pIC50,KYSE-70 cell line,< 5.10
same,pIC50,EFO-21,< 5.10
same,pIC50,MC116,< 5.10
same,pIC50,OAW-42,< 5.10
same,pIC50,LB771-HNC,< 5.10
same,pIC50,KYSE-510,< 5.10
same,pIC50,OVCAR-3,< 5.10
same,pIC50,KGN,5.51
same,pIC50,RXF 393,< 5.10
same,pIC50,ETK-1,< 5.10
same,pIC50,EFO-27,< 5.10
same,pIC50,MKN-1,< 5.10
same,pIC50,CHP-212,5.74
same,pIC50,ACN,< 5.10
same,pIC50,Ramos-2G6-4C10,< 5.10
same,pIC50,TGBC1TKB,< 5.10
same,pIC50,YKG-1,< 5.10
same,pIC50,MDA-MB-157,< 5.10
same,pIC50,Calu-6,< 5.10
same,pIC50,DB,< 5.10
same,pIC50,AN3-CA,< 5.10
same,pIC50,HCC1187,< 5.10
same,pIC50,NCI-H1299,< 5.10
same,pIC50,no-10,< 5.10
same,pIC50,LU-99A,< 5.10
same,pIC50,BFTC-909,< 5.10
same,pIC50,NCI-H1437,< 5.10
same,pIC50,NCI-H226,< 5.10
same,pIC50,NCI-H1838,< 5.10
same,pIC50,BT-474,< 5.10
same,pIC50,KNS-81-FD,5.17
same,pIC50,SNU-387,< 5.10
same,pIC50,D-336MG,< 5.10
same,pIC50,EW-16,< 5.10
same,pIC50,MeWo,< 5.10
same,pIC50,SNB-75,< 5.10
same,pIC50,SHP77,< 5.10
same,pIC50,OCI-AML2,< 5.10
same,pIC50,P30-OHK,< 5.10
same,pIC50,U2OS,5.54
same,pIC50,NB14,< 5.10
same,pIC50,SW948,< 5.10
same,pIC50,NCI-H1581,< 5.10
same,pIC50,IGROV-1,< 5.10
same,pIC50,SJSA-1,5.55
same,pIC50,SNU-5,< 5.10
same,pIC50,HLE,< 5.10
same,pIC50,NB12,< 5.10
same,pIC50,MEL-HO,5.23
same,pIC50,C32,5.25
same,pIC50,GB-1,< 5.10
C=CCNC1=C2C[C@@H](C)C[C@H](OC)[C@H](O)[C@@H](C)/C=C(\C)[C@H](OC(N)=O)[C@@H](OC)/C=C\C=C(/C)C(=O)NC(=CC1=O)C2=O [TANESPIMYCIN],pIC50,KYSE-70 cell line,6.48
same,pIC50,EFO-21,< 6.00
same,pIC50,MC116,< 6.00
same,pIC50,OAW-42,< 6.00
same,pIC50,LB771-HNC,< 6.00
same,pIC50,KYSE-510,7.33
same,pIC50,OVCAR-3,6.23
same,pIC50,KGN,< 6.00
same,pIC50,RXF 393,6.92
same,pIC50,ETK-1,6.80
same,pIC50,EFO-27,7.00
same,pIC50,MKN-1,6.23
same,pIC50,CHP-212,7.58
same,pIC50,ACN,7.38
same,pIC50,Ramos-2G6-4C10,< 6.00
same,pIC50,TGBC1TKB,7.09
same,pIC50,YKG-1,7.29
same,pIC50,MDA-MB-157,6.74
same,pIC50,Calu-6,< 6.00
same,pIC50,DB,< 6.00
same,pIC50,AN3-CA,7.30
same,pIC50,HCC1187,< 6.00
same,pIC50,NCI-H1299,6.79
same,pIC50,no-10,< 6.00
same,pIC50,LU-99A,7.21
same,pIC50,BFTC-909,7.10
same,pIC50,NCI-H1437,6.92
same,pIC50,NCI-H226,< 6.00
same,pIC50,NCI-H1838,< 6.00
same,pIC50,BT-474,7.35
same,pIC50,KNS-81-FD,6.74
same,pIC50,SNU-387,< 6.00
same,pIC50,D-336MG,7.48
same,pIC50,EW-16,< 6.00
same,pIC50,MeWo,6.83
same,pIC50,SNB-75,6.91
same,pIC50,SHP77,6.04
same,pIC50,OCI-AML2,6.18
same,pIC50,P30-OHK,< 6.00
same,pIC50,U2OS,6.77
same,pIC50,NB14,< 6.00
same,pIC50,SW948,< 6.00
same,pIC50,NCI-H1581,6.99
same,pIC50,IGROV-1,6.73
same,pIC50,SJSA-1,6.50
same,pIC50,SNU-5,6.52
same,pIC50,HLE,< 6.00
same,pIC50,NB12,< 6.00
same,pIC50,MEL-HO,7.14
same,pIC50,C32,8.52
same,pIC50,GB-1,< 6.00
